Assay results taken from patent publication US20160324201A1, “SWEETENER COMPOSITION FOR ALLEVIATING DIABETES, CONTAINING SLOWLY DIGESTIBLE INGREDIENT” (CJ CHEILJEDANG CORPORATION, priority 2011, published 2016).

Test: Area under the curve of blood glucose (G-AUC) after meal and coffee containing the sweetener composition
Type: in vivo, human
Details: to 30 min
Experimental: (§1) The sweetener composition intake was conducted by providing subjects with an identical meal and then allowing them to drink coffee containing the sweetener composition.
(§2) In order to measure changes in blood glucose after the meal, blood glucose level before meal was checked, followed by providing the subjects with the meal and then coffee was given. Blood glucose was measured for 2 hours at intervals of 30 minutes.

| SMILES | G-AUC [mg·min/dL] |
| --- | --- |
| OC[C@H]1O[C@@](CO)(O[C@H]2O[C@H](CO)[C@@H](O)[C@H](O)[C@H]2O)[C@@H](O)[C@@H]1O [Comparative Example 1, Sugar] | 3483 |
| OC[C@@H](O)[C@@H](O)CO [Comparative Example 2, Erythritol] | 3449 |
| O=C(CO)[C@H](O)[C@H](O)[C@H](O)CO [Comparative Example 3, D-psicose] | 3236 |

Same assay, conditions: to 60 min

| SMILES | G-AUC [mg·min/dL] |
| --- | --- |
| OC[C@H]1O[C@@](CO)(O[C@H]2O[C@H](CO)[C@@H](O)[C@H](O)[C@H]2O)[C@@H](O)[C@@H]1O [Comparative Example 1, Sugar] | 7425 |
| OC[C@@H](O)[C@@H](O)CO [Comparative Example 2, Erythritol] | 7329 |
| O=C(CO)[C@H](O)[C@H](O)[C@H](O)CO [Comparative Example 3, D-psicose] | 6803 |

Same assay, conditions: to 90 min

| SMILES | G-AUC [mg·min/dL] |
| --- | --- |
| OC[C@H]1O[C@@](CO)(O[C@H]2O[C@H](CO)[C@@H](O)[C@H](O)[C@H]2O)[C@@H](O)[C@@H]1O [Comparative Example 1, Sugar] | 10758 |
| OC[C@@H](O)[C@@H](O)CO [Comparative Example 2, Erythritol] | 10619 |
| O=C(CO)[C@H](O)[C@H](O)[C@H](O)CO [Comparative Example 3, D-psicose] | 9917 |

Same assay, conditions: to 120 min

| SMILES | G-AUC [mg·min/dL] |
| --- | --- |
| OC[C@H]1O[C@@](CO)(O[C@H]2O[C@H](CO)[C@@H](O)[C@H](O)[C@H]2O)[C@@H](O)[C@@H]1O [Comparative Example 1, Sugar] | 13686 |
| OC[C@@H](O)[C@@H](O)CO [Comparative Example 2, Erythritol] | 13542 |
| O=C(CO)[C@H](O)[C@H](O)[C@H](O)CO [Comparative Example 3, D-psicose] | 12725 |

Test: Changes in blood glucose after an identical meal and coffee containing the sweetener composition
Type: in vivo, human
Details: 0 min (before meal); normal subjects, five males and five females
Experimental: (1) Preparation of Test Specimen for Measuring Blood Glucose and Method of Intake
as §1
(2) Measurement of Changes in Blood Glucose Levels
as §2

| SMILES | Blood glucose [mg/dL] |
| --- | --- |
| OC[C@H]1O[C@@](CO)(O[C@H]2O[C@H](CO)[C@@H](O)[C@H](O)[C@H]2O)[C@@H](O)[C@@H]1O [Comparative Example 1, Sugar] | 93.1 |
| OC[C@@H](O)[C@@H](O)CO [Comparative Example 2, Erythritol] | 92.8 |
| O=C(CO)[C@H](O)[C@H](O)[C@H](O)CO [Comparative Example 3, D-psicose] | 92.4 |

Same assay, conditions: 30 min after meal and coffee; * = p < 0.01 or less vs Comparative Example 1 (sugar)

| SMILES | Blood glucose [mg/dL] |
| --- | --- |
| OC[C@H]1O[C@@](CO)(O[C@H]2O[C@H](CO)[C@@H](O)[C@H](O)[C@H]2O)[C@@H](O)[C@@H]1O [Comparative Example 1, Sugar] | 139.1 |
| OC[C@@H](O)[C@@H](O)CO [Comparative Example 2, Erythritol] | 137.1 |
| O=C(CO)[C@H](O)[C@H](O)[C@H](O)CO [Comparative Example 3, D-psicose] | 123.3 |

Same assay, conditions: 60 min after meal and coffee; * = p < 0.01 or less vs Comparative Example 1 (sugar)

| SMILES | Blood glucose [mg/dL] |
| --- | --- |
| OC[C@H]1O[C@@](CO)(O[C@H]2O[C@H](CO)[C@@H](O)[C@H](O)[C@H]2O)[C@@H](O)[C@@H]1O [Comparative Example 1, Sugar] | 123.7 |
| OC[C@@H](O)[C@@H](O)CO [Comparative Example 2, Erythritol] | 121.6 |
| O=C(CO)[C@H](O)[C@H](O)[C@H](O)CO [Comparative Example 3, D-psicose] | 114.5 |

Same assay, conditions: 90 min after meal and coffee; * = p < 0.01 or less vs Comparative Example 1 (sugar)

| SMILES | Blood glucose [mg/dL] |
| --- | --- |
| OC[C@H]1O[C@@](CO)(O[C@H]2O[C@H](CO)[C@@H](O)[C@H](O)[C@H]2O)[C@@H](O)[C@@H]1O [Comparative Example 1, Sugar] | 98.5 |
| OC[C@@H](O)[C@@H](O)CO [Comparative Example 2, Erythritol] | 97.7 |
| O=C(CO)[C@H](O)[C@H](O)[C@H](O)CO [Comparative Example 3, D-psicose] | 93.1 |

Same assay, conditions: 120 min after meal and coffee

| SMILES | Blood glucose [mg/dL] |
| --- | --- |
| OC[C@H]1O[C@@](CO)(O[C@H]2O[C@H](CO)[C@@H](O)[C@H](O)[C@H]2O)[C@@H](O)[C@@H]1O [Comparative Example 1, Sugar] | 96.7 |
| OC[C@@H](O)[C@@H](O)CO [Comparative Example 2, Erythritol] | 97.2 |
| O=C(CO)[C@H](O)[C@H](O)[C@H](O)CO [Comparative Example 3, D-psicose] | 94.1 |

Same assay, conditions: result in words

| SMILES | Post-meal increase in blood glucose |
| --- | --- |
| OC[C@H]1O[C@@](CO)(O[C@H]2O[C@H](CO)[C@@H](O)[C@H](O)[C@H]2O)[C@@H](O)[C@@H]1O [Comparative Example 1, Sugar] | highest increase in blood glucose |
| OC[C@@H](O)[C@@H](O)CO [Comparative Example 2, Erythritol] | increase in blood glucose due to the meal only |
| O=C(CO)[C@H](O)[C@H](O)[C@H](O)CO [Comparative Example 3, D-psicose] | lowering increase in blood glucose after the meal |
